{"source": "patent US20230121313A1", "about": "(priority 2019, published 2023)", "key": {"[1]": {"test_system": "subjects with MDD at imminent risk for suicide", "assay": "Beck Scale for Suicidal Ideation (BSS), Study […]2001", "format": "in vivo, human", "details": "84 mg; for BSS total score change, Diff. of LS Means (minus Placebo): ANCOVA LOCF; for BSS total score, change from baseline, mean / BSS total score, change from baseline, median / BSS total score, mean / BSS total score, median: LOCF, N 34", "description": "• a. Changes from baseline to Day 2 and Day 25 for the MADRS total score • b. Changes from baseline to Day 1 4-hours postdose, Day 2 and Day 25 for the MADRS Suicide Item • c. Changes from baseline to Day 1 4-hours postdose, Day 2, and Day 25 for the clinical global judgment of suicide risk from the Suicide Ideation and Behavior Assessment Tool (SIBAT) • d. Sustained response (Onset of Clinical Response) defined as at least 50% reduction from baseline in MADRS total score with onset on Day 1 that is maintained through the end of the double-blind phase (Day 25) • e. Changes from baseline to Day 1 4-hours postdose, Day 2, and Day 25 for the Beck Scale for Suicidal Ideation (BSS) • f. Changes from baseline to Day 1 4-hours postdose and Day 25 for the Beck Hopelessness Scale\nThe BSS is a 21-item self-reported instrument to detect and measure the severity of suicidal ideation in adults and adolescents aged 17 years and older. The BSS total score represents the severity of suicide ideation, and it is calculated by summing the ratings of the first 19 items; the total score ranges from 0 to 38, with a higher score representing greater suicide ideation. Increasing scores reflect increases in suicidal risk."}, "[2]": {"test_system": "patients with treatment-resistant depression (TRD)", "assay": "Vital signs (blood pressure, heart rate), phase 2 dose-response study in TRD", "format": "in vivo, human"}, "adult subjects with TRD": {"test_system": "adult subjects with TRD", "details": "human, in vivo, other: intranasal", "quoted_text": "The MOAA/S was used to measure treatment-emergent sedation, with correlation to levels of sedation defined by the American Society of Anesthesiologists (ASA) continuum. The MOAA/S scores range from 0=no response to painful stimulus (corresponds to ASA continuum for general anesthesia) to 5=readily responds to name spoken in normal tone (awake; corresponds to ASA continuum for minimal sedation).\nOn each intranasal dosing day, the MOAA/S was performed every 15 minutes from pre-dose to t=+1.5 hours post-dose. If the score was ≤3 at any time during the 1.5 hours post-dose interval, the MOAA/S was performed every 5 minutes until a score of 4 is reached (at which point a frequency of every 15 minutes can be resumed until t=+1.5 hours post dose). […] For subjects with a score of 4, the assessment was repeated every 15 minutes. […]\nThe Modified Observer's Assessment of Alertness/Sedation (MOAA/S) was used to measure treatment-emergent sedation with correlation to levels of sedation defined by the American Society of Anesthesiologists (ASA) continuum. The MOAA/S scores ranged from 0 (No response to painful stimulus; corresponds to ASA continuum for general anesthesia) to 5 (Readily responds to name spoken in normal tone [awake]; corresponding to ASA continuum for minimal sedation)."}, "[3]": {"test_system": "subjects with MDD at imminent risk for suicide", "details": "human, in vivo, other: intranasal, 84 mg", "quoted_text": "The CADSS was measured prior to the start of each dose, at 40 minutes, 2 hours, and 4 hours postdose."}}}
{"smiles": "CN[C@]1(c2ccccc2Cl)CCCCC1=O", "note": "[esketamine, (S)-2-(2-chlorophenyl)-2-(methylamino)cyclohexanone]", "values": [{"measurement": "BSS total score change, Diff. of LS Means (minus Placebo)", "setting": "[1]; Day 1 (DB): 4 H", "value": "−2.3"}, {"measurement": "BSS total score, change from baseline, mean", "setting": "[1]; Day 1 (DB): 4 H", "value": "−10.2"}, {"measurement": "BSS total score, change from baseline, median", "setting": "[1]; Day 1 (DB): 4 H", "value": "−8.0"}, {"measurement": "BSS total score, mean", "setting": "[1]; Day 1 (DB): 4 H", "value": 13.8}, {"measurement": "BSS total score, median", "setting": "[1]; Day 1 (DB): 4 H", "value": 16.5}, {"measurement": "BSS total score change, Diff. of LS Means (minus Placebo)", "setting": "[1]; Day 2 (DB)", "value": "−1.9"}, {"measurement": "BSS total score, change from baseline, mean", "setting": "[1]; Day 2 (DB)", "value": "−12.9"}, {"measurement": "BSS total score, change from baseline, median", "setting": "[1]; Day 2 (DB)", "value": "−11.5"}, {"measurement": "BSS total score, mean", "setting": "[1]; Day 2 (DB)", "value": 11.1}, {"measurement": "BSS total score, median", "setting": "[1]; Day 2 (DB)", "value": 13.0}, {"measurement": "BSS total score change, Diff. of LS Means (minus Placebo)", "setting": "[1]; End Point (DB)", "value": "−1.7"}, {"measurement": "BSS total score, change from baseline, mean", "setting": "[1]; End Point (DB)", "value": "−19.3"}, {"measurement": "BSS total score, change from baseline, median", "setting": "[1]; End Point (DB)", "value": "−21.0"}, {"measurement": "BSS total score, mean", "setting": "[1]; End Point (DB)", "value": 4.7}, {"measurement": "BSS total score, median", "setting": "[1]; End Point (DB)", "value": 0.0}, {"measurement": "BSS total score change vs placebo", "setting": "[1]; […]2001, Day 1: 4 hours postdose, Day 2 (DB), End Point (DB)", "value": "no statistically significant differences"}, {"measurement": "Diastolic blood pressure: maximum mean change on dosing days", "setting": "[2]", "value": 10.3, "unit": "mmHg"}, {"measurement": "Elevated blood pressure returned to the normal range by (post-dose)", "setting": "[2]", "value": "≤ 2", "unit": "h"}, {"measurement": "Heart rate: maximum mean change on dosing days", "setting": "[2]", "value": 9.4, "unit": "bpm"}, {"measurement": "Systolic blood pressure: maximum mean change on dosing days", "setting": "[2]", "value": 19.0, "unit": "mmHg"}, {"measurement": "Maximum diastolic blood pressure value", "setting": "[2]; 10 or 40 minutes post-dose", "value": 115, "unit": "mmHg"}, {"measurement": "Maximum systolic blood pressure value", "setting": "[2]; 10 or 40 minutes post-dose", "value": 199, "unit": "mmHg"}, {"measurement": "Sedation (MOAA/S) resolved by (postdose)", "setting": "adult subjects with TRD", "value": "≤ 1.5", "unit": "h"}, {"measurement": "CADSS dissociative and perceptual change symptoms resolved by (postdose)", "setting": "[3]", "value": "≤ 2", "unit": "h"}]}
